The structures appear in SMILES notation.

Data on one compound can be found in patent publication US20070148184A1, “Survivin-derived peptides and use thereof” (priority 2003, published 2007).

In one data set the target is T1, HLA-A2 (Homo sapiens, UniProt P04439, D140Y/D185E/D98H/E176V/E277Q/G131W/G231S/I119V/I121R/I166T/I218V/L300P/L318F/N151K/N90K/P208A/P217A/Q86G/Q94H/R138H/R169H/T345S).
T1 construct: stabilization of the class I molecules after loading of peptide to the peptide transporter deficient cell line T2; endogenous in cells; host or cells: T2 (TAP-deficient human hybrid cell line), metabolically labelled lysate
The data set is described as follows: Assembly assay for peptide binding to class I MHC, HLA-A2. The settings on record: Example 1, Table 1; read-out: C50 (peptide concentration for half maximal binding to HLA-A2). On the procedure:
This assembly assay is carried out as described previously (12,13), and it is based on stabilisation of the HLA molecule after loading of peptide to the peptide transporter deficient cell line T2. Subsequently, correctly folded stable HLA heavy chains are immunoprecipitated using conformation dependent antibodies and the peptide binding is quantitated.
Assembly assays for binding of the synthetic peptides to class I MHC molecules metabolically labeled with [35S]-methionine were carried out as described (12,13). The assembly assay is based on stabilization of the class I molecules after loading of peptide to the peptide transporter deficient cell line T2. Subsequently, correctly folded stable MHC heavy chains are immunoprecipitated using conformation-dependent antibodies. After IEF electrophoresis, gels were exposed to phosphoImager screens, and peptide binding was quantified using the Imagequant PhosphorImager program (Molecular Dynamics, Sunnyvale, Calif.).
The binding affinity of synthetic peptides (Invitrogen, Carlsbad, Calif., USA) to HLA-A1, -A2, A3, or -A11 molecules metabolically labeled with [^35S]-methionine was measured in the assembly assay, as described previously (12). The assay is based on peptide-mediated stabilization of empty HLA molecules released upon cell lysis, from the TAP-deficient cell lines. […] MHC heavy chain bands were quantified using the ImageGauge Phosphorimager program (FUJI photo film Co., Carrollton, Tex., USA). The intensity of the band is proportional to the amount of peptide-bound class I MHC complex recovered during the assay. Subsequently, the extent of stabilization of the HLA-molecule is directly related to the binding affinity of the added peptide. The peptide concentration used to analyze the recovery of the HLA-molecules was 40, 4, 0.4, 0.04 μM for HLA-A1 and HLA-A11, and 100, 10, 1, 0.1, 0.01 μM for HLA-A2 and HLA-A3. The C50 value was subsequently calculated for each peptide as the peptide concentration sufficient for half maximal stabilization.

In data set [1] the test system is stage 1V melanoma patients. Description: Vaccination of melanoma patients with peptide pulsed dendritic cells. The note with it: human, in vivo. From the text: All clinical procedures were in accordance with the Declaration of Helsinki and all patients provided informed consent prior to therapy. Stage 1V cutaneous or uveal melanoma patients were eligible when their disease was progressive despite at least two different chemo-, immuno, or chemoimmunotherapies. […] Important exclusion criteria were evidence of CNS metastases, active autoimmune or infectious diseases, pregnancy and lactation, as well as significant psychiatric abnormality. Peptide pulsed dendritic cells were generated as previously described (82). Briefly, PBMCs from leukapheresis were isolated on LymphoprepTM (Nycomed Pharma), frozen in aliquots and stored in liquid nitrogen. One week prior to vaccination, PBMCs were thawed, washed and cultured in medium containing gentamycin, glutamine and heat inactivated autologous plasma. On day 1 and 5, IL-4 and GM-CSF were added. To differentiate mature DCs, […] and prostaglandin E2 were added on day 6. […] Immunological responses were monitored by the ELISPOT assay, using PBMCs obtained every three months, to detect survivin96-104 specific IFN-γ release. […] The reaction was terminated upon the appearance of dark purple spots, which were quantitated using the AlphaImager System (Alpha Innotech, San Leandro, Calif., USA).

With `CSCC[C@H](NC(=O)[C@@H](N)CC(C)C)C(=O)N[C@@H](CC(C)C)C(=O)NCC(=O)N[C@@H](CCC(=O)O)C(=O)N[C@@H](Cc1ccccc1)C(=O)N[C@@H](CC(C)C)C(=O)N[C@@H](CCCCN)C(=O)N[C@@H](CC(C)C)C(=O)O` [Sur1M2], the EC50 on HLA-A2 is 1000 nM. Also, in data set [1], the vaccination associated toxicity result is “vaccination associated toxicity was not observed”.
